Results taken from US20190223483A1, “SENSORY MODIFIER COMPOUNDS” (CARGILL, INCORPORATED, priority 2017, published 2019).
Where “and” joins values, the source holds several entries; their conditions need not be identical. Equal entries are not always repeated.

Tests used:
Format in all cases: in vivo
[1] = Roundtable assessment of mouthfeel (scale 0 to 2)
Description: For other sweetness attributes, the solutions were tested by a panel of at least four individuals that are highly-trained in tasting steviol glycoside solutions. The highly-trained panelists used a roundtable methodology to assess each sweetness attribute. To test each solution, the highly-trained panelists dispensed approximately 2 mL of each solution into their own mouths by transfer pipet, dispersed the solution by moving their tongues, and recorded a value for the particular sweetness attribute being tested. Between tasting solutions, the panelists were able to cleanse their palates with water. For each sweetness attribute, the panelist agreed on a descriptive scale with relative intensities assigned for each sweetness attribute and then recorded the values for each sweetness attribute against this. For example, this roundtable assessment of sweetness linger assigned a scale of 0 to 6 with a score of 0 indicating no sweetness linger and a score of 6 indicating extreme sweetness linger. Roundtable assessment of sweetness linger assigned a scale of 0 to 6 with a score of 0 indicating no sweetness linger and a score of 6 indicating extreme sweetness linger (0=none, 1=trace, 2=slight, 3=moderate, 4=definite, 5=strong, 6=extreme). Roundtable assessment of rounded assigned a scale of 0 to 3 with a score of 0 indicating spikey and a score of 3 indicating desirable rounded (0=none, 1=mostly spikey, some rounded, 2=mostly rounded, some spikey, 3=rounded). Roundtable assessment of mouthfeel assigned a scale of 0 to 2 with a score of 0 indicating water and a score of 2 indicating syrupy (0=water, 1=sucrosey, 2=syrupy). Roundtable assessment of bitterness assigned a scale of 0 to 6 with a score of 0 indicating no bitterness and a score of 6 indicating extreme sweetness linger (0=none, 1=trace, 2=slight, 3=moderate, 4=definite, 5=strong, 6=extreme). Roundtable assessment of off tastes assigned a scale of 0 to 6 with a score of 0 indicating no bitterness and a score of 6 indicating extreme off tastes (0=none, 1=trace, 2=slight, 3=moderate, 4=definite, 5=strong, 6=extreme).
A series of assays were carried out to characterize a sweetness quality of mouthfeel (0=water, 1=sucrosey, 2=syrupy) of steviol glycoside compositions with sensory modifier compound using the roundtable methodology described in Example 1. […] Solutions of steviol glycosides and sensory modifier compound were prepared at increasing ratios of sensory modifier to steviol glycoside by weight. The steviol glycosides were RebA (4 glycoside groups), RebD (5 glycoside groups), RebM (6 glycoside groups), and OPS1-5(7 glycoside groups) and the sensory modifier compound was monocaffeoylquinic and dicaffeoylquinic acids prepared from yerba mate. The concentration of steviol glycosides was 700 ppm in each solution. […]

[2] = Sweetness intensity (SEV) by trained panel against 1%-14% sucrose standards; conditions: for sweetness intensity plateau (SEV): Reb M alone, at about 800 ppm; for sweetness intensity (SEV): about 1400 ppm Reb M with about 1400 ppm sensory modifier
Description: In some aspects, the amount of sensory modifier compound effective to increase sweetness intensity can be determined by panel testing with trained panelists. For example, […] can be determined by the following test: Solutions were prepared by dissolving steviol glycosides and sensory modifier compounds into reverse osmosis water at the indicated concentrations and/or ratios. Solutions were tested by a panel of at least four individuals that are highly-trained in tasting steviol glycoside solutions. The highly-trained panelists were trained against a standard range of 1%, 2%, 3%, 4%, 5%, 6%, 7%, 8%, 9%, 10%, 11%, 12%, 13%, and 14% sucrose solutions corresponding to 1, 2, 3, 4, 5, 6, 7, 8, 9, 10, 11, 12, 13, and 14 SEV. To test each solution, the highly-trained panelists dispensed approximately 2 mL of each solution into their own mouths by transfer pipet, dispersed the solution by moving their tongues, and recorded an SEV value for each solution based on comparison to the 1%, 2%, 3%, 4%, 5%, 6%, 7%, 8%, 9%, 10%, 11%, 12%, 13%, and 14% sucrose solutions. Between tasting solutions, the panelists were able to cleanse their palates with water. […] For sweetness intensity, the panelists focused on, and only recorded, the sweetness intensity in SEV that they tasted while disregarding other attributes of the solution. At the highest concentrations of steviol glycoside and sensory modifier compound, the panelists found other attributes to be highly noticeable, but recorded the isolated sweetness intensity for each solution despite these other attributes. Exemplary tests are described below in Example 1.
All solutions were prepared by dissolving steviol glycosides and sensory modifier compounds into reverse osmosis water at the indicated concentrations and/or ratios.
For sweetness intensity, the solutions were tested by a panel of at least four individuals that are highly-trained in tasting steviol glycoside solutions. The highly-trained panelists were trained against a standard range of 1%, 2%, 3%, 4%, 5%, 6%, 7%, 8%, 9%, 10%, 11%, 12%, 13%, and 14% sucrose solutions corresponding to 1, 2, 3, 4, 5, 6, 7, 8, 9, 10, 11, 12, 13, and 14 SEV. To test each solution, the highly-trained panelists dispensed approximately 2 mL of each solution into their own mouths by transfer pipet, dispersed the solution by moving their tongues, and recorded an SEV value for each solution based on comparison to the 1%, 2%, 3%, 4%, 5%, 6%, 7%, 8%, 9%, 10%, 11%, 12%, 13%, and 14% sucrose solutions. Between tasting solutions, the panelists were able to cleanse their palates with water. […] For this example, the panelists focused on and only recorded the sweetness intensity in SEV that they tasted while disregarding other attributes of the solution. At the highest concentrations of steviol glycoside and sensory modifier compound, the panelists found other attributes to be highly noticeable, but recorded the isolated sweetness intensity for each solution despite these other attributes.

[3] = Roundtable assessment of bitterness (scale 0 to 6); parameters: key: 0 = none; 1 = trace/faint; 2 = slight; 3 = moderate; 4 = definite; 5 = strong; 6 = extreme
[4] = steviol glycoside 700 ppm + yerba mate mono/dicaffeoylquinic acids 810 ppm
[5] = steviol glycoside 700 ppm, sensory modifier 0 ppm
[6] = steviol glycoside 700 ppm + yerba mate mono/dicaffeoylquinic acids 630 ppm
[7] = steviol glycoside 700 ppm + yerba mate mono/dicaffeoylquinic acids 946 ppm
[8] = steviol glycoside 700 ppm + yerba mate mono/dicaffeoylquinic acids […]
[9] = RebM 700 ppm + cichoric acid (tartaric backbone) 514 ppm
[10] = RebM 700 ppm + rosmarinic acid 586 ppm

C=C1C[C@@]23CC[C@H]4[C@@](C)(CCC[C@@]4(C)C(=O)O[C@@H]4O[C@H](CO)[C@@H](O)[C@H](O)[C@H]4O[C@@H]4O[C@H](CO)[C@@H](O)[C@H](O)[C@H]4O)[C@@H]2CC[C@]1(O[C@@H]1O[C@H](CO)[C@@H](O)[C@H](O[C@@H]2O[C@H](CO)[C@@H](O)[C@H](O)[C@H]2O)[C@H]1O[C@@H]1O[C@H](CO)[C@@H](O)[C@H](O)[C@H]1O)C3 [RebD, Rebaudioside D]
Mouthfeel [1, 4]: Not noted by panel
SEV ([2]; steviol glycoside 700 ppm + yerba mate mono/dicaffeoylquinic acids 270 ppm): 8.5
SEV ([2]; steviol glycoside 700 ppm + yerba mate mono/dicaffeoylquinic acids 540 ppm): 8.5
SEV [2, 4]: 8.5
SEV [2, 5]: 8

C=C1C[C@@]23CC[C@H]4[C@@](C)(CCC[C@@]4(C)C(=O)O[C@@H]4O[C@H](CO)[C@@H](O)[C@H](O)[C@H]4O)[C@@H]2CC[C@]1(O[C@@H]1O[C@H](CO)[C@@H](O)[C@H](O[C@@H]2O[C@H](CO)[C@@H](O)[C@H](O)[C@H]2O)[C@H]1O[C@@H]1O[C@H](CO)[C@@H](O)[C@H](O)[C@H]1O)C3 [RebA, Rebaudioside A]
Mouthfeel [1, 6]: Not noted by panel
Mouthfeel [1, 7]: Not noted by panel
Mouthfeel [1, 8]: Not noted by panel
SEV [2, 6]: 7
SEV [2, 7]: 7
SEV [2, 8]: 7
SEV [2, 5]: 7

C=C1C[C@@]23CC[C@H]4[C@@](C)(CCC[C@@]4(C)C(=O)O[C@@H]4O[C@H](CO)[C@@H](O)[C@H](O[C@@H]5O[C@H](CO)[C@@H](O)[C@H](O)[C@H]5O)[C@H]4O[C@@H]4O[C@H](CO)[C@@H](O)[C@H](O)[C@H]4O)[C@@H]2CC[C@]1(O[C@@H]1O[C@H](CO)[C@@H](O)[C@H](O[C@@H]2O[C@H](CO)[C@@H](O)[C@H](O)[C@H]2O)[C@H]1O[C@@H]1O[C@H](CO)[C@@H](O)[C@H](O)[C@H]1O)C3 [RebM, Rebaudioside M]
Bitterness [3, 9]: 0
Bitterness [3, 10]: 0
sweetness intensity plateau (SEV) ([2]; listed as Reb M): about 11
sweetness intensity plateau (SEV) ([2]; listed as rebaudioside M): ~11
SEV ([2]; RebM 100 ppm + yerba mate mono/dicaffeoylquinic acids 100 ppm (1:1)): 3.5
SEV ([2]; RebM 100 ppm, no sensory modifier): 3.25
SEV ([2]; RebM 200 ppm + yerba mate mono/dicaffeoylquinic acids 200 ppm (1:1)): 6
SEV ([2]; RebM 200 ppm, no sensory modifier): 4.5
SEV ([2]; RebM 300 ppm + yerba mate mono/dicaffeoylquinic acids 300 ppm (1:1)): 7.5
SEV ([2]; RebM 300 ppm, no sensory modifier): 5.75
SEV ([2]; RebM 400 ppm + yerba mate mono/dicaffeoylquinic acids 400 ppm (1:1)): 8.5
SEV ([2]; RebM 400 ppm, no sensory modifier): 7.75
SEV ([2]; RebM 500 ppm + yerba mate mono/dicaffeoylquinic acids 500 ppm (1:1)): 9.25
SEV ([2]; RebM 500 ppm, no sensory modifier): 9
SEV ([2]; RebM 600 ppm + yerba mate mono/dicaffeoylquinic acids 600 ppm (1:1)): 10
SEV ([2]; RebM 600 ppm, no sensory modifier): 9.5
SEV [2, 9]: 10
SEV ([2]; RebM 700 ppm + cichoric acid (tartaric backbone) 772 ppm): 9
SEV ([2]; RebM 700 ppm + cichoric acid (tartaric backbone) […]): 10
SEV ([2]; RebM 700 ppm + rosmarinic acid 195 ppm): 10.5
SEV ([2]; RebM 700 ppm + rosmarinic acid 391 ppm): 10.25
SEV [2, 10]: 10.25
SEV ([2]; RebM 700 ppm + yerba mate mono/dicaffeoylquinic acids 700 ppm (1:1)): 10.5
SEV ([2]; RebM 700 ppm, no sensory modifier): 10.5
SEV ([2]; RebM 800 ppm + yerba mate mono/dicaffeoylquinic acids 800 ppm (1:1)): 10.5
SEV ([2]; RebM 800 ppm, no sensory modifier): 10.75
SEV ([2]; RebM 900 ppm + yerba mate mono/dicaffeoylquinic acids 900 ppm (1:1)): 11
SEV ([2]; RebM 900 ppm, no sensory modifier): 11
SEV ([2]; RebM 1000 ppm + yerba mate mono/dicaffeoylquinic acids 1000 ppm (1:1)): 11.5
SEV ([2]; RebM 1000 ppm, no sensory modifier): 11
SEV ([2]; RebM 1100 ppm + yerba mate mono/dicaffeoylquinic acids 1100 ppm (1:1)): 12
SEV ([2]; RebM 1100 ppm, no sensory modifier): 11
SEV ([2]; RebM 1200 ppm + yerba mate mono/dicaffeoylquinic acids 1200 ppm (1:1)): 12.25
SEV ([2]; RebM 1200 ppm, no sensory modifier): 11
SEV ([2]; RebM 1300 ppm + yerba mate mono/dicaffeoylquinic acids 1300 ppm (1:1)): 12.5
SEV ([2]; RebM 1400 ppm + yerba mate mono/dicaffeoylquinic acids 1400 ppm (1:1)): 13
SEV ([2]; RebM 1500 ppm + yerba mate mono/dicaffeoylquinic acids 1500 ppm (1:1)): 13
SEV ([2]; RebM 1600 ppm + yerba mate mono/dicaffeoylquinic acids 1600 ppm (1:1)): 13
sweetness intensity (SEV) ([2]; listed as Reb M): about 13
sweetness intensity (SEV) ([2]; listed as rebaudioside M): ~13
SEV ([2]; steviol glycoside 700 ppm + yerba mate mono/dicaffeoylquinic acids 236 ppm): 10 and 10.5
SEV ([2]; steviol glycoside 700 ppm + yerba mate mono/dicaffeoylquinic acids 300 ppm): 10.25
SEV ([2]; steviol glycoside 700 ppm + yerba mate mono/dicaffeoylquinic acids 400 ppm): 10.25
SEV ([2]; steviol glycoside 700 ppm + yerba mate mono/dicaffeoylquinic acids 472 ppm): 10
SEV ([2]; steviol glycoside 700 ppm + yerba mate mono/dicaffeoylquinic acids 500 ppm): 10.00
SEV ([2]; steviol glycoside 700 ppm + yerba mate mono/dicaffeoylquinic acids 600 ppm): 10.5
SEV ([2]; steviol glycoside 700 ppm + yerba mate mono/dicaffeoylquinic acids 700 ppm): 10.5 and 10
SEV ([2]; steviol glycoside 700 ppm + yerba mate mono/dicaffeoylquinic acids 708 ppm): 10
SEV ([2]; steviol glycoside 700 ppm + yerba mate mono/dicaffeoylquinic acids 800 ppm): 10.5
SEV [2, 5]: 10.5
